Columns and labels:
[1] = Hydrolysis of TPP-IOA by cytosol and mitochondrial fractions of mouse embryonic cells (HPLC); type: in vitro ADME
Procedure: Incubations were carried out in 0.1 M phosphate buffer (pH 7.0) for 25 min at 37° C.; and reaction was stopped with CH3CN denatured proteins were centrifuged, and the supernatant was subjected to HPLC analysis. The volume of samples was 1 ml.
To test this, assessments of esterase activity of mitochondria and cytosolic fractions isolated from mouse embryonic cells were performed based on HPLC measurements of TPP-IOA (FIG. 4). […] Thus, both TPP-IOA and its de-esterifed form, IOA, could be present in mitochondria of mouse embryonic cells.

mouse embryonic cells [2] = assay: ATP levels in mouse embryonic cells (bioluminescent kit); type: cell-based
Procedure: ATP levels in cells were measured using ATP bioluminescent somatic cell assay kit (St. Louis, Mo.) according to the manufacturer's instructions.

[3] = test system: caspase-3 activation in S-100 from mouse embryonic cells; assay: Cell-free apoptosis system (S100): caspase-3 activation by exogenous cyt c/dATP; type: biochemical; settings: S100, 1 mM dATP, 1 μM cyt c, 90 min
Procedure: The cytosol extracts (S100) of mouse embryonic cells were obtained as described previously^38 with minor modifications. Briefly, the cells were washed twice in cold phosphate-buffered saline, pH 7.4, and the resulting pellet was resuspended in buffer containing 25 mM HEPES-KOH, pH 7.0, 10 mM KCl, 1.5 mM MgCl2, 1 mM EDTA, 1 mM EGTA, 1 mM DTT, 0.1 mM phenylmethylsulfonyl fluoride, 0.05% digitonin, and 1% protease inhibitor mixture for 2 min at 4° C. Cells were centrifuged at 4° C. for 10 min at 10,000×g. The resulting supernatant was further centrifuged at 4° C. for 50 min at 100,000×g. The supernatant was collected as S-100 and kept at −80° C. until further use. For caspase-3 activation, S100 (5 μg of protein/μl) was incubated with 1 mM dATP and 1 μM cyt c for 90 min at 37° C. The caspase-3 activity was evaluated using Enzchek caspase-3 assay kit as described in the manufacturer's manual (Invitrogen, Carlsbad, Calif.).

[4] = test system: mouse lung endothelial cells; assay: Rotenone-induced apoptosis in mouse lung endothelial cells (PS externalization); type: cell-based; settings: 2 μM rotenone, TPP-IOA 2.5, 5 μM, 48 h
Procedure: Mouse embryonic cells (courtesy of Dr X. Wang, University of Texas, Dallas) were cultured in Dulbecco's Modified Eagle Medium (DMEM) supplemented with 15% fetal bovine serum (FBS), 25 mM Hepes, 50 mg per liter uridine, 110 mg per liter pyruvate, 2 mM glutamine, 1× nonessential amino acids, 50 μM β-mercaptoethanol, 0.5×10^6 Upper liter mouse leukaemia inhibitory factor, 100 Upper liter penicillin, and 100 mg per liter streptomycin in a humidified atmosphere of 5% CO2, 95% air at 37° C. Mouse lung endothelial cells were obtained as previously described^29. Briefly, lungs were flushed with Hank's balanced salt solution (HBSS) containing 10 U ml^−1 heparin, then homogenized and digested in type I collagenase using a gentle MACs dissociator (Miltenyi). […] At approximately passage 2, cells were incubated with fluorescently labelled diacetylated low-density lipoprotein (LDL) followed by fluorescence-activated cell sorting (FACS) for further purification. The enriched PECAM and diacetylated LDL population was sub-cultured on a collagen/gelatin matrix in 2% O2, 5% CO2, 93% nitrogen in a Coy Hypoxic Glove Box/Chamber in Opti-MEM (Gibco), 10% FBS, 2 mM glutamine, 0.2% retinal-derived growth factor (Vec Technologies), 10 U ml^−1 heparin, 0.1 mM non-essential amino acid supplement (Gibco) and 55 μM β-mercaptoethanol (Counted as passage 3). […]

mouse embryonic cells [5] = assay: Clonogenic survival of mouse embryonic cells after γ-irradiation; type: cell-based; settings: 2.5 μM added 30 min post γ-irradiation; single-hit multi-target model; untreated 1.33±0.08
Procedure: Cells were plated in 35-mm dishes with 2 ml culture medium at the appropriate density (between 100 and 1000 cells per dish). TPP-ISA (2.5 μM) or TPP-IOA (2.5 μM) was added to the cell culture 30 min post γ-irradiation. Medium containing TPP-ISA or TPP-IOA was replaced with fresh complete culture medium after 4 hrs. Colonies were fixed and stained with 0.25% crystal violet and 10% formalin (35% v/v) in 80% methanol for 30 min after a 7-day incubation, and those with >50 cells were scored as survivors. The surviving fraction was calculated as the plating efficiency (=number of colonies counted/number of cells seeded×100%) of samples relative to that of control. The data were fitted to a single-hit multi-target model. D0—the dose needed to reduce cell surviving fraction to 37% (1/e)—was estimated from the curves fitted to evaluate the radiomitigative effects of TPP-ISA and TPP-IOA.

C57BL/6NTac female mice [6] = assay: Survival of mice after 9.25 Gy total body irradiation, linear accelerator; type: in vivo, mouse; settings: for Overall Survival (52 days): p versus irradiated mice / Survival Over First 20 Days: p versus irradiated mice: log-rank
Procedure: C57BL/6NTac female mice were exposed to total body irradiation to a dose of 9.25 Gy using a linear accelerator (n=10-23 mice per group). The mice were injected i.p. with TPP-IOA (5 mg per kg body weight in 100 μl of water containing 25% ethanol) at 1 h or 10 min before irradiation or 10 min, 5 or 24 h after irradiation. Mice exposed to: total body irradiation at the dose of 9.25 Gy only (black circles); to total body irradiation at the dose of 9.25 Gy and injected with TPP-IOA (5 mg per kg body weight) 10 min (grey circles), 5 h (downward-pointing triangles) and 24 h (lower grey squares) thereafter. Mice injected with TPP-IOA (5 mg per kg body weight) 10 min (upper grey squares) and 1 h (upward-pointing triangles) before total body irradiation (9.25 Gy).
C57BL/6NTac female mice were anaesthetized with Nembutal (1 mg per 20 g mouse), irradiated to a total body dose of 9.25 Gy using either a Shepherd Mark 1 Model 68 cesium irradiator at a dose rate of 80 cGy min^−1 (31-35 mice per group) or a Varian TrueBeam linear accelerator (Varian Medical Systems) at 100 monitor units or 100 cGy min^−1 using 6 MV photons with a 40 cm×40 cm field at 100 SSD (10-23 mice per group). Mice were injected intraperitoneally (i.p.) with 5 mg per kg body weight of TPP-IOA in a 100 μl volume of water containing 25% ethanol at 1 h before irradiation, 10 min before irradiation, 10 min after irradiation, 5 h after irradiation and 24 h after irradiation. Other groups were injected i.p. with 2.5 mg per kg body weight of TPP-IOA or 5 mg per kg body weight of TPP-ISA 10 min after irradiation. The mice were followed for the development of haematopoietic syndrome (at which time they were killed).
The log-rank test was used for three analyses: the comparison of overall survival that is defined as the time from the date of radiation to the date of death for all mice under study; the comparison of short-term survival over the first 20 days, that is, the overall survival count at 20 days; and the comparison of conditional survival in mice surviving 20 or more days, that is, the time from the date of radiation to the date of death for all mice who survived 20 days or longer after radiation. All these comparisons were made between each of the treated groups and the radiation-only control group.

C57BL/6NTac female mice [7] = assay: Health of non-irradiated mice after i.p. injection; type: in vivo, mouse; settings: i.p. 5 mg per kg body weight, period of study 52 days
[8] = 2.5 mg/kg body weight i.p., 10 min after 9.25 Gy
[9] = 5 mg/kg body weight i.p., 10 min after 9.25Gy
[10] = 5 mg/kg body weight i.p., 10 min before 9.25Gy
[11] = 5 mg/kg body weight i.p., 1 hr before 9.25Gy
[12] = 5 mg/kg body weight i.p., 5 hr after 9.25Gy
[13] = 5 mg/kg body weight i.p., 24 hr after 9.25Gy

In the case of CCCCCCC(C/C=C\CCCCCCCC(=O)OCCC[P+](c1ccccc1)(c1ccccc1)c1ccccc1)n1ccnc1.[Br-] (stereo not shown) [TPP-IOA], the “hydrolysis rate in mitochondria” value ([1]; 1 mg protein/ml, pH 7.0, 37° C.) is reported as “comparable to that in the cytosolic fraction”, the “hydrolysis of the ester bond by endogenous esterases” value ([1]; mitochondria and cytosol of mouse embryonic cells) is reported as “hydrolysis of TPP-IOA takes place in both mitochondria and the cytosol” and the “effect on ATP levels” value (mouse embryonic cells [2]) is reported as “Neither TPP-IOA nor TPP-ISA had any effect”. The “caspase activation caused by exogenously added cyt c” value [3] was “completely insensitive”, the “inhibition of rotenone-induced apoptosis” value [4] was “effectively inhibited apoptosis” and the “D0, the dose needed to reduce cell surviving fraction to 37% (1/e)” value (mouse embryonic cells [5]) was 1.71±0.05. For the same molecule, the “mitigating the mice against irradiation, lower dose” value (C57BL/6NTac female mice [6]; 2.5 mg per kg body weight, 10 min after irradiation) was “not effective”, the “Overall Survival (52 days): Median Survival (95% Confidence Interval)” value (“Overall Survival … (95% Confidence Interval)” below) (C57BL/6NTac female mice [6]; [8]) was 17 (14, —) days and the “Survival Over First 20 Days: Median Survival (95% Confidence Interval)” value (C57BL/6NTac female mice [6]; [8]) was 17 (14, —) days. The “Overall Survival (52 days): p versus irradiated mice” value (C57BL/6NTac female mice [6]; [8]) was 0.0525, the “Survival Over First 20 Days: p versus irradiated mice” value (C57BL/6NTac female mice [6]; [8]) was 0.0525 and the “survival when given at later time points after irradiation” value (C57BL/6NTac female mice [6]; 5 mg per kg, 5 or 24 h after irradiation) was “significant increase in survival”. The “protection when given before irradiation” value (C57BL/6NTac female mice [6]; 5 mg per kg, 10 min or 1 h before irradiation) was “protective”, the “Overall Survival … (95% Confidence Interval)” value (C57BL/6NTac female mice [6]; [9]) was “— (—, —)” and the “Survival Over First 20 Days: Median Survival (95% Confidence Interval)” value (C57BL/6NTac female mice [6]; [9]) was “— (—, —)”. The “Overall Survival (52 days): p versus irradiated mice” value (C57BL/6NTac female mice [6]; [9]) was <0.0001, the “Survival Over First 20 Days: p versus irradiated mice” value (C57BL/6NTac female mice [6]; [9]) was <0.0001 and the “Overall Survival (52 days): p versus irradiated mice” value (C57BL/6NTac female mice [6]; [10]) was 0.0009. The “Survival Over First 20 Days: p versus irradiated mice” value (C57BL/6NTac female mice [6]; [10]) was 0.0009, the “Overall Survival (52 days): p versus irradiated mice” value (C57BL/6NTac female mice [6]; [11]) was 0.0230 and the “Survival Over First 20 Days: p versus irradiated mice” value (C57BL/6NTac female mice [6]; [11]) was 0.0230. The “Overall Survival (52 days): p versus irradiated mice” value (C57BL/6NTac female mice [6]; [12]) was 0.0030, the “Survival Over First 20 Days: p versus irradiated mice” value (C57BL/6NTac female mice [6]; [12]) was 0.0030 and the “Overall Survival … (95% Confidence Interval)” value (C57BL/6NTac female mice [6]; [13]) was 18 (13, —) days. For the same molecule, the “Survival Over First 20 Days: Median Survival (95% Confidence Interval)” value (C57BL/6NTac female mice [6]; [13]) was 18 (13, —) days, the “Overall Survival (52 days): p versus irradiated mice” value (C57BL/6NTac female mice [6]; [13]) was 0.0416 and the “Survival Over First 20 Days: p versus irradiated mice” value (C57BL/6NTac female mice [6]; [13]) was 0.0416. For the same molecule, the “adverse side effects in non-irradiated mice” value (C57BL/6NTac female mice [7]) was “no adverse side effects were noticed”.

With CCCCCCC(CCCCCCCCCCC(=O)OCCC[P+](c1ccccc1)(c1ccccc1)c1ccccc1)n1ccnc1.[Br-] (stereo not shown) [TPP-ISA] the “effect on ATP levels” value (mouse embryonic cells [2]) was “Neither TPP-IOA nor TPP-ISA had any effect”, the “caspase activation caused by exogenously added cyt c” value [3] was “completely insensitive” and the “D0, the dose needed to reduce cell surviving fraction to 37% (1/e)” value (mouse embryonic cells [5]) was 1.67±0.06. For the same molecule, the “Overall Survival (52 days): p versus irradiated mice” value (C57BL/6NTac female mice [6]; [9]) was 0.0114, the “Survival Over First 20 Days: p versus irradiated mice” value (C57BL/6NTac female mice [6]; [9]) was 0.0114 and the “adverse side effects in non-irradiated mice” value (C57BL/6NTac female mice [7]) was “no adverse side effects were noticed”.

From US9365597B2, “Mitochondria-targeted inhibitors of cytochrome c peroxidase for protection from apoptosis” (Brock University, priority 2011, dated 2016)
